Measurements: US20190201578A1, “Biomaterial Implant” (The Johns Hopkins University, priority 2017, published 2019)

How the values were obtained:
[1] = tested on: rat cornea wound; assay: cornea wound healing in the presence of therapeutics; details: for time to heal: wounds 3.5 mm in diameter that normally took 48 hours or more
Procedure: Furthermore, the epithelial wounds were manually made using a biopsy punch. To replicate a more traumatic cornea wound that penetrates both the epithelium and stroma, a Nidek EC-5000 excimer laser was used. The laser settings to obtain circular wounds were 2 mm in diameter and approximately 100 μm deep. We confirmed wound depth using optical coherence tomography (OCT). […] The laser application was performed by first chilling eyes in a saline ice bath prior to wounding, and then applying the laser in 10 second bursts, with 5 second rest in between to minimize laser damage outside the wound. […] The dynamic time course of the electric signal change in the hours after wounding was also similar to that of shallower wounds (see FIG. 9). Normal epithelial wounds 2 mm in diameter heal almost completely in 48 hours. Deep laser wounds took longer to heal than shallow epithelial wounds, but did heal 100% by day 8 (see FIG. 10).
(§1) Wounds 3.5 mm in diameter that normally took 48 hours or more to completely heal were healed in 30 hours in the presence of these therapeutics. To ensure that the aminophylline has the same effect on deep wounds as shallow epithelial wounds, wound electric fields were measured using the vibrating probe with and without the presence of 1 and 10 mM aminophylline. FIG. 11 illustrates the presence of aminophylline in the wound.
FIG. 12 illustrates wound healing of a deep wound (100 μm) without and with the presence of 1 mM aminophylline as function of time. In this regard, at 500, deep wound healing with and without the presence of aminophylline are shown. At 520, an OCT image of the control wound is shown. At 540, an OCT image with the presence of aminophylline in the wound is shown.
Furthermore, FIG. 13 illustrates the percentage of wound healing as a function of time for corneas treated with the bioelectric modulator aminophylline (1 mM).

[2] = cited from earlier work
[3] = tested on: rat cornea wound; assay: cornea wound electric current and ion flux measured with vibrating probe; details: for cornea wound electric signal: 10 mM
Procedure: In order to understand corneal wound healing, the spatiotemporal dynamics of rat cornea wound electric currents and ion flux using a vibrating probe were characterized. In particular, measurements of deeper wounds of approximately 100 microns in depth, penetrating the stroma, were analyzed. For both shallow and deep wounds, electric current and ion flux were maximized at the wound edge, minimized at the wound center, and reduced to normal (unwounded) values at a small distance outside the wound. Wound electric current was outward (i.e., outward transient outward flux of potassium which diminished rapidly and therefore appeared to be leakage). Small fluxes of calcium and sodium were also observed. The main ion flux appeared to be a large influx of chloride ions at the wound edge. Time lapse measurements of electric current in the hours after wounding indicate that the wound electric signal was long-lasting and appears to be actively-regulated. The wound electric signal increased rapidly until approximately 40 minutes after wounding and was maintained at a high level for several hours. FIGS. 9 and 10 show time lapse data for both a shallow (normal epithelial) wound and a deep (stromal) wound. In this regard, electric signals for a shallow depth wound and a deep wound were compared.
Furthermore, the epithelial wounds were manually made using a biopsy punch. To replicate a more traumatic cornea wound that penetrates both the epithelium and stroma, a Nidek EC-5000 excimer laser was used. The laser settings to obtain circular wounds were 2 mm in diameter and approximately 100 μm deep. We confirmed wound depth using optical coherence tomography (OCT). […] The laser application was performed by first chilling eyes in a saline ice bath prior to wounding, and then applying the laser in 10 second bursts, with 5 second rest in between to minimize laser damage outside the wound. […]
as §1, with “FIG. 11 illustrates the presence of aminophylline in the wound.” left out
The effects of two distinct rehydrated collagen membranes (with a nominal thickness of 100 μm) on cornea wound electric signal were characterized. […] As the probe was moved away from the source of electric signal, the current detected fell exponentially.
The effect of physical presence of collagen membrane and probe distance from wound edge on the electric signal was tested. The probe was placed in measuring position as close as possible to the wound edge with the collagen membrane, and the electric signal was recorded. […]

SMILES	cornea wound healing [1]	wound healing of a deep wound (OCT) ([1]; deep wound 100 μm, 1 mM, FIG. 12)	time to heal [1] [h]	log partition (log P) coefficient value [2]	chloride flux at the wound [3]	cornea wound electric signal [3]	wound electric field ([3]; deep wounds, 1 and 10 mM, FIG. 11)
Cn1c(=O)c2[nH]cnc2n(C)c1=O [aminophylline]	significantly enhanced	faster than a control	30	−3.03	significantly increases	significantly increase	increase in the wound electric field
O=C1O[C@H]([C@@H](O)CO)C(O)=C1O [ascorbic acid]	significantly enhanced		30			significantly increase	
